Results on 12 compounds are retold here after patent US20260083865A1, “PROSTATE SPECIFIC MEMBRANE ANTIGEN (PSMA) LIGANDS AND USE THEREOF” (priority 2022, published 2026).

Test [1] concerns the target T1, PSMA-expressing C4-2 cells (Homo sapiens, UniProt Q04609).
T1 construct: PSMA-expressing C4-2 cells (ATCC, Cat. No. CRL-3314) were cultured in RPMI-1640; host or cells: C4-2 cells
The test is described as follows: FACS binding assay (competition with 50 nM PSM-0183). Conditions: for IC50: read-out: pIC50 [C4-2] CAT (converted). In outline: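 C4-2 cells were incubated 1 h at 4 °C with 50 nM AF488-labelled peptide PSM-0183 plus increasing test compound concentrations, then washed twice in ice-cold buffer. Median fluorescence in the AF488 channel was read by flow cytometry. IC50/pIC50 was derived by 4PL fitting of MFI versus concentration.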

The target in test [2] is T2, Fc-fusion protein of human PSMA (hPSMA-Fc) (Homo sapiens, UniProt Q04609).
T2 construct: purchased Acro Biosystems PSA-H5264
The test is described as follows: Surface plasmon resonance assay (Biacore T200, single cycle kinetic). It counts as binding. As to conditions: for Kd: read-out: pKD CAT (converted). In outline: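 hPSMA-Fc was captured (~1000 RU) on an Fc-binding-peptide CM5 chip, and compounds were run in single cycle kinetic mode at 25° C in HBST with 0.1% DMSO. Double-blank-corrected sensorgrams were fitted to a 1:1 Langmuir model to give KD, reported as pKD.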

Where [3] appears, read: FACS binding, C4-2 cells, category.
[4] abbreviates: pIC50 category of FACS binding, C4-2 cells.
[5] abbreviates: pKD category for PSMA SPR activity assay, hPSMA-Fc, 25° C.
Setting [6] is: FACS binding, C4-2 cells, competition with 50 nM PSM-0183, category.
Setting [7] is: SPR, hPSMA-Fc, single cycle kinetic, 25° C., category.

Numbered stars: 1 amine (or outer) side, 2 acyl side, 3 side chain; on linkers, the order of the positions; unused ones are H or OH. Bridge positions count the residues as written; N and C are the ends. Square brackets hold non-standard residues; d marks the D form. Peptide text beside a SMILES is read from it. * marks the point of attachment. TtdsdLys(DOTA)NH2 = NC(=O)[C@@H](CCCCNC(=O)CN1CCN(CC(=O)O)CCN(CC(=O)O)CCN(CC(=O)O)CC1)NC(=O)CCC(=O)NCCCOCCOCCOCCCN*; DO3AM = NC(=O)CN1CCN(CC(N)=O)CCN(CC(=O)*)CCN(CC(N)=O)CC1; DOTA = O=C(O)CN1CCN(CC(=O)O)CCN(CC(=O)*)CCN(CC(=O)O)CC1; X10 = NC(=O)CN1CCN(CC(=O)O)CCN(CC(=O)*)CCN(CC(=O)O)CC1; Phe(4-Cl) = N[C@@H](Cc1ccc(Cl)cc1)C(=O)O; Arg(Me) = CNC(=N)NCCC[C@H](N)C(=O)O; Ethylenediamine = C(CN[*:2])N[*:1]; X1 = O=C(CC1CCN([*:1])CC1)[*:2]; Lys(Me) = CNCCCC[C@H](N)C(=O)O; Tle = CC(C)(C)[C@H](N)C(=O)O; Aib = CC(C)(N)C(=O)O; βAla = NCCC(=O)O

T2 sequence (Q04609 44-750 limits assumed): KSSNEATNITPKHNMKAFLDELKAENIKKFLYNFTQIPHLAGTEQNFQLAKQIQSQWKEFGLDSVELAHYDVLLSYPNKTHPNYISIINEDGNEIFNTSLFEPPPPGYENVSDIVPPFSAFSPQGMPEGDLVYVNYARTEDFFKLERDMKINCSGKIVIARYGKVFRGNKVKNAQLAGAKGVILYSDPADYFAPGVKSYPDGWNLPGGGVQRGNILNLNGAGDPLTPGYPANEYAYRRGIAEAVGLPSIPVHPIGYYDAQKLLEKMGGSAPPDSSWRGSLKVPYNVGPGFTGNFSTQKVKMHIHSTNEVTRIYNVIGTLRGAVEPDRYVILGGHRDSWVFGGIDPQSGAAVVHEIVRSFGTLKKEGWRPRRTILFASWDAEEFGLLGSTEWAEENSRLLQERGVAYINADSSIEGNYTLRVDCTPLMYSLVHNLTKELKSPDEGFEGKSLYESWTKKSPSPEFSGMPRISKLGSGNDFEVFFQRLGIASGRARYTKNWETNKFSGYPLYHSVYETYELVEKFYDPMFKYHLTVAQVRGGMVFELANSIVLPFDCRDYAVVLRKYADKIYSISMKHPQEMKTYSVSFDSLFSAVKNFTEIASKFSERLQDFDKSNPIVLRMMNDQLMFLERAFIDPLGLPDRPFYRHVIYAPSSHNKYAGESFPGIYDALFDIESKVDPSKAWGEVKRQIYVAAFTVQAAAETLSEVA
T1 sequence (Q04609 whole entry): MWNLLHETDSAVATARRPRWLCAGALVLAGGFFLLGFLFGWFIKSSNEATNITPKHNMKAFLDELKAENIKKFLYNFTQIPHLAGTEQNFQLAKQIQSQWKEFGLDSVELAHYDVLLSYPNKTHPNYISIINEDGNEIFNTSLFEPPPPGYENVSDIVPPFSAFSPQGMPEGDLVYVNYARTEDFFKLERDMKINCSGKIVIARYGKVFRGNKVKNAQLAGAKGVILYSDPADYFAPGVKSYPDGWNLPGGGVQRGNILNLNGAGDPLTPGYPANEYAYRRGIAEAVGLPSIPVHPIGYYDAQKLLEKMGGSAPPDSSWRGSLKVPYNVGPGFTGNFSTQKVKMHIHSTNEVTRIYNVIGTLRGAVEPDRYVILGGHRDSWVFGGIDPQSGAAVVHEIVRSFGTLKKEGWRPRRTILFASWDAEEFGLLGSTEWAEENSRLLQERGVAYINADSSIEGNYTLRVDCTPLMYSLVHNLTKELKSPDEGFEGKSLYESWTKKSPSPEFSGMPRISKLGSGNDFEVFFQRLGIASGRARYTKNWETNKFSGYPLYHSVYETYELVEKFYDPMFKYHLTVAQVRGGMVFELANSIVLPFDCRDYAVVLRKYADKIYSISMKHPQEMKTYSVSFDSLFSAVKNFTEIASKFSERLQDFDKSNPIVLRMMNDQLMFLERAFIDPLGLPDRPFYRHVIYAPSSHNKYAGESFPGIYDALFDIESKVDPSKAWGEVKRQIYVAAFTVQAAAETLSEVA

`CC(=O)N[C@H]1CSSC[C@@H](C(=O)N[C@@H](CC(C)C)C(=O)N[C@H](C(=O)N[C@@H](CC(=O)O)C(=O)NCCCOCCOCCOCCCNC(=O)CCC(=O)N[C@H](CCCCNC(=O)CN2CCN(CC(=O)O)CCN(CC(=O)O)CCN(CC(=O)O)CC2)C(N)=O)[C@@H](C)O)NC(=O)[C@H](CC(N)=O)NC(=O)[C@H](C)NC(=O)[C@H](CCCNC(=N)N)NC(=O)[C@H](CCCCN)NC1=O` [PSM-0591, Ac-[Cys-Lys-Arg-Ala-Asn-Cys]-Leu-Thr-Asp-Ttds-lys(DOTA)-NH2] (Ac-CKRANCLTD-{TtdsdLys(DOTA)NH2}; disulfide 1-6): the IC50 in test [1] (setting [3]) is more than 3160 nM. The Kd in test [2] (PSMA SPR assay, category) is more than 501 nM.
On the same counts, the results for `CNCCCC[C@@H]1NC(=O)[C@@H](NC(=O)[C@H](Cc2ccc(Cl)cc2)NC(=O)C(C)(C)NC(=O)[C@@H](NC(=O)CC2CCN(C(=O)CN3CCN(CC(N)=O)CCN(CC(N)=O)CCN(CC(N)=O)CC3)CC2)[C@@H](C)O)CSSC[C@@H](C(=O)N[C@H](C(=O)N[C@H](C(N)=O)[C@@H](C)O)C(C)(C)C)NC(=O)[C@H](CC(N)=O)NC(=O)C(C)(C)NC(=O)[C@H](CCCNC(=N)NC)NC1=O` [PSM-0593, DOTAM-Cmp-Thr-Aib-Pcf-[Cys-Lys(Me)-Arg(Me)-Aib-Asn-Cys]-Tle-Thr-NH2] (DO3AM-[X1]T[Aib][Phe(4-Cl)]C[Lys(Me)][Arg(Me)][Aib]NC[Tle]T-NH2; disulfide 5-10) are less than 200 nM and less than 12.6 nM.
On the same counts, the results for `CNCCCC[C@@H]1NC(=O)[C@@H](NC(=O)[C@H](Cc2ccc(Cl)cc2)NC(=O)C(C)(C)NC(=O)[C@@H](NC(=O)CC2CCN(C(=O)CN3CCN(CC(=O)O)CCN(CC(=O)O)CCN(CC(=O)O)CC3)CC2)[C@@H](C)O)CSSC[C@@H](C(=O)O)NC(=O)[C@H](CC(N)=O)NC(=O)C(C)(C)NC(=O)[C@H](CCCNC(=N)NC)NC1=O` [PSM-0594, DOTA-Cmp-Thr-Aib-Pcf-[Cys-Lys(Me)-Arg(Me)-Aib-Asn-Cys]-OH] ({DOTA}-[X1]T[Aib][Phe(4-Cl)]C[Lys(Me)][Arg(Me)][Aib]NC-OH; disulfide 5-10) are 1260 to 3160 nM and more than 501 nM.
On the same counts, the results for `CNCCCC[C@@H]1NC(=O)[C@@H](NC(=O)[C@H](Cc2ccc(Cl)cc2)NC(=O)C(C)(C)NC(=O)[C@@H](NC(=O)CC2CCN(C(=O)CN3CCN(CC(=O)O)CCN(CC(N)=O)CCN(CC(=O)O)CC3)CC2)[C@@H](C)O)CSSC[C@@H](C(=O)N[C@H](C(=O)N[C@H](C(N)=O)[C@@H](C)O)C(C)(C)C)NC(=O)[C@H](CC(N)=O)NC(=O)C(C)(C)NC(=O)[C@H](CCCNC(=N)NC)NC1=O` [PSM-0601, LSC-Cmp-Thr-Aib-Pcf-[Cys-Lys(Me)-Arg(Me)-Aib-Aan-Cys]-Tle-Thr-NH] (X10-[X1]T[Aib][Phe(4-Cl)]C[Lys(Me)][Arg(Me)][Aib]NC[Tle]T-NH2; disulfide 5-10) are less than 200 nM and less than 12.6 nM.
As for `CNCCCC[C@@H]1NC(=O)[C@@H](NC(=O)[C@H](Cc2ccccc2)NC(=O)C(C)(C)NC(=O)[C@@H](NC(=O)CC2CCN(C(=O)CN3CCN(CC(=O)O)CCN(CC(=O)O)CCN(CC(=O)O)CC3)CC2)[C@@H](C)O)CSSC[C@@H](C(=O)N[C@H](C(=O)NCCN)C(C)(C)C)NC(=O)[C@H](CC(N)=O)NC(=O)C(C)(C)NC(=O)[C@H](CCCNC(=N)NC)NC1=O` [PSM-605] ({DOTA}-[X1]T[Aib]FC[Lys(Me)][Arg(Me)][Aib]NC[Tle]-Ethylenediamine; disulfide 5-10), in test [1] (setting [3]), the IC50 was less than 200 nM. Moreover, the Kd in test [2] (PSMA SPR assay, category) is less than 12.6 nM.
On the same counts, the results for `CNCCCC[C@@H]1NC(=O)[C@@H](NC(=O)[C@H](Cc2ccc(Cl)cc2)NC(=O)C(C)(C)NC(=O)[C@@H](NC(=O)CC2CCN(C(=O)CN3CCN(CC(=O)O)CCN(CC(=O)O)CCN(CC(=O)O)CC3)CC2)[C@@H](C)O)CSSC[C@@H](C(=O)N[C@H](C(=O)NCCC(N)=O)C(C)(C)C)NC(=O)[C@H](CC(N)=O)NC(=O)C(C)(C)NC(=O)[C@H](CCCNC(=N)NC)NC1=O` [PSM-606] ({DOTA}-[X1]T[Aib][Phe(4-Cl)]C[Lys(Me)][Arg(Me)][Aib]NC[Tle][βAla]-NH2; disulfide 5-10) are less than 200 nM and less than 12.6 nM.
As to “Ac-Thr-Aib-Phe-[Cys-Lys-Arg-Aib-Asn-Cys]-Tle-Thr-Cmp-lys (InDOTA)-NH2 [PSM-0440]”, the “pIC50 [C4-2] CAT” value in test [1] (setting [4]) is “A (pIC50 values >6.7)”. Also, the “pKD CAT” value in test [2] (setting [5]) is “A (pKD values >7.9)”.
In the case of “Ac-Thr-Aib-Phe-[Cys-Lys-Arg-Aib-Asn-Cys]-Tle-Thr-Cmp-lys (LuDOTA)-NH2 [PSM-0347]”, the “pIC50 [C4-2] CAT” value in test [1] (FACS binding, PSMA-expressing C4-2 cells, pIC50 category) is given as “A (pIC50 values >6.7)”. Besides, in test [2] (PSMA SPR assay, hPSMA-Fc, 25° C., pKD category), the “pKD CAT” value was “A (pKD values >7.9)”.
As to “InDOTA-Cmp-Thr-Aib-Pcf-[Cys-Lys(Me)-Arg(Me)-Aib-Asn-Cys]-Tle-NH2 [PSM-0519]”, the “pIC50 [C4-2] CAT” value in test [1] (setting [4]) is “A (pIC50 values >6.7)”. For the same compound, the “pKD CAT” value in test [2] (setting [5]) is recorded as “A (pKD values >7.9)”.
Regarding “InDOTA-Cmp-Thr-Aib-Phe-[Cys-Lys-Arg-Aib-Asn-Cys]-Tle-Thr-NH2 [PSM-0195]”, the “pIC50 [C4-2] CAT” value in test [1] (setting [6]) is reported as “A (pIC50 values >6.7)”. In test [2] (setting [7]), the “pKD CAT” value is reported as “A (pKD values >7.9)”.
Regarding “InLSC-Cmp-Thr-Aib-Pcf-[Cys-Lys(Me)-Arg(Me)-Aib-Asn-Cys]-Tle-Thr-NH2 [PSM-0604]”, the “pIC50 [C4-2] CAT” value in test [1] (setting [3]) is reported as “A (pIC50 values >6.7)”. The “pKD CAT” value in test [2] (PSMA SPR assay, category) is recorded as “A (pKD values >7.9)”.
With “nBuCAyl-Thr-Aib-Phe-[Cys-Lys-Arg-Aib-Asn-Cys]-Tle-Thr-Cmp-lys(InDOTA)-NH2 [PSM-0214]”, in test [1] (setting [6]), the “pIC50 [C4-2] CAT” value was “A (pIC50 values >6.7)”. The “pKD CAT” value in test [2] (setting [7]) is “A (pKD values >7.9)”.
